Tests used:
potassium arsenate = compound: O=[As]([O-])(O)O.[K+] [potassium arsenate]; assay: thermal stability z-score vs DMSO; higher = more thermally stabilized by treatment; details: HeLa; arsenate concentration 1 mM
Experimental: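 Cellular thermal proteome profiling in HeLa cells treated with 1 mM arsenate for 1 h (DMSO pretreatment), heated to ten temperatures (37-66.3 °C). Soluble protein was quantified by TMT mass spectrometry relative to DMSO controls; the thermal stability score was transformed to a z-score; mean of n = 3 experiments.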

lipoamide = compound: NC(=O)CCCCC1CCSS1 [lipoamide]; assay: as above; details: HeLa, lipoamide concentration 100 µM
Experimental: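 Cellular thermal proteome profiling in HeLa cells. Cells were treated with 100 µM lipoamide for 1 h, with or without 1 mM arsenate for a further 1 h, then heated to ten temperatures (37-66.3 °C), and soluble protein was quantified by TMT mass spectrometry relative to 0.1% DMSO controls. The thermal stability score (sum of log2 fold changes minus the abundance score) was transformed to a z-score; mean of n = 3 experiments.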

[1] = arsenate co-treatment: 1 mM arsenate 1 h
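Also: each temperature applied for 3 min, abundance score taken as mean log2 fold change at the two lowest temperatures, z-score obtained by mean subtraction and division by SD.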

Sequence of UniProt Q96BZ8 (Q96BZ8 whole entry): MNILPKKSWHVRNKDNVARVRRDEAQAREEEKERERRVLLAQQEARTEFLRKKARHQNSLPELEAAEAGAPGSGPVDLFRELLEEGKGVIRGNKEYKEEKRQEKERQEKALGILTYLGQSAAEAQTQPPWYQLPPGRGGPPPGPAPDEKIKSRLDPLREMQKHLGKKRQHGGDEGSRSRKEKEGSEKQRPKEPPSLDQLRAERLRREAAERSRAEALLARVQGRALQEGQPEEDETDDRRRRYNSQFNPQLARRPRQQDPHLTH
Sequence of UniProt Q71RC2 (Q71RC2 whole entry): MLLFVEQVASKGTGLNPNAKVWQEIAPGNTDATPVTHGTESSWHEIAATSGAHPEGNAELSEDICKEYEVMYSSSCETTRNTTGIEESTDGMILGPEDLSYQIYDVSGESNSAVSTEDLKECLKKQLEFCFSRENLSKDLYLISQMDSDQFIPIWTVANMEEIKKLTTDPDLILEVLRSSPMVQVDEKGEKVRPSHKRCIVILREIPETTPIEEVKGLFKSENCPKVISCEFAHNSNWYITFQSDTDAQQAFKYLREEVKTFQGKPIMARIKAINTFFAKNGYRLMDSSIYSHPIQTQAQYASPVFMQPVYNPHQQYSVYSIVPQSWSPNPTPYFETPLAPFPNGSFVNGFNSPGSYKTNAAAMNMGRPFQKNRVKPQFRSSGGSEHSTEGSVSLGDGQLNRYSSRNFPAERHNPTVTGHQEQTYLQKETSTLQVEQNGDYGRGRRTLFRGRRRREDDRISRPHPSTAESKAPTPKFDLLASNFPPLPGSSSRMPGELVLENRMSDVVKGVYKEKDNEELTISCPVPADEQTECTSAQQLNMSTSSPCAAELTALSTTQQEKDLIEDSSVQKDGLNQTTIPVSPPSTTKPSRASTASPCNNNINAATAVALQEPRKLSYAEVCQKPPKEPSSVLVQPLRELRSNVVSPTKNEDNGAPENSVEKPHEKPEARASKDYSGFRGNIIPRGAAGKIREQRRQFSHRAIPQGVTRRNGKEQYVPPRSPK
Sequence of UniProt P17931 (P17931 whole entry): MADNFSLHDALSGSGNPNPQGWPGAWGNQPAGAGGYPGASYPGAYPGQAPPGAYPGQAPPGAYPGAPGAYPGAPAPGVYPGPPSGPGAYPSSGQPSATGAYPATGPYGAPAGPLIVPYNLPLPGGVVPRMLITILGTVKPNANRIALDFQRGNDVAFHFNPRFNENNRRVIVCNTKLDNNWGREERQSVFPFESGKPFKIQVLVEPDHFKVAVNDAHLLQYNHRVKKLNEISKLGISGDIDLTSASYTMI
Sequence of UniProt P49916 (P49916 whole entry): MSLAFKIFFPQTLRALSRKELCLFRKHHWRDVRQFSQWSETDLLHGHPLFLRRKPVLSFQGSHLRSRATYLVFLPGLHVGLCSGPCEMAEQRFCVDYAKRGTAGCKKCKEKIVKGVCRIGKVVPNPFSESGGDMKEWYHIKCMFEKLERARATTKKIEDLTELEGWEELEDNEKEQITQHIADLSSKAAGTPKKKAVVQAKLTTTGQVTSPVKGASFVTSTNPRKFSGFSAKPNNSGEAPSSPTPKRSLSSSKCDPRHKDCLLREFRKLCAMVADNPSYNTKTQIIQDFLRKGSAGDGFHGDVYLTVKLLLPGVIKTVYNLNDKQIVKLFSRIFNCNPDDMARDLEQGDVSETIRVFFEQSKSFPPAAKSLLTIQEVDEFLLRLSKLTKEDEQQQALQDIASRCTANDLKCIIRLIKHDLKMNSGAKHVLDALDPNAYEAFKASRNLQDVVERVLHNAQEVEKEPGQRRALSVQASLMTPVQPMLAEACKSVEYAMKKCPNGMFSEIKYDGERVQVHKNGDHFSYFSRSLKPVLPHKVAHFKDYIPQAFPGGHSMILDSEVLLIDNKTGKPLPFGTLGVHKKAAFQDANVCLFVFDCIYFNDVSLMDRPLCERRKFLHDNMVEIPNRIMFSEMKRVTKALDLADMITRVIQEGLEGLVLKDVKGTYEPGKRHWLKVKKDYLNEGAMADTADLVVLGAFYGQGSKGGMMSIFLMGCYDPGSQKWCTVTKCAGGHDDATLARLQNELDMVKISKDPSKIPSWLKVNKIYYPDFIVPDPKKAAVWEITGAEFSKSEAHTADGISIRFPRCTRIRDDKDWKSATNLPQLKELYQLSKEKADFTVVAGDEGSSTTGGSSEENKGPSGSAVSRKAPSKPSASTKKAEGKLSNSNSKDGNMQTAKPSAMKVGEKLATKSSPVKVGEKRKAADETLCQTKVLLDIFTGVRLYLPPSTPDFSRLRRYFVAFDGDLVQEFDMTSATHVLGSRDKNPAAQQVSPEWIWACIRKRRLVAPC
Sequence of UniProt Q96B70 (Q96B70 whole entry): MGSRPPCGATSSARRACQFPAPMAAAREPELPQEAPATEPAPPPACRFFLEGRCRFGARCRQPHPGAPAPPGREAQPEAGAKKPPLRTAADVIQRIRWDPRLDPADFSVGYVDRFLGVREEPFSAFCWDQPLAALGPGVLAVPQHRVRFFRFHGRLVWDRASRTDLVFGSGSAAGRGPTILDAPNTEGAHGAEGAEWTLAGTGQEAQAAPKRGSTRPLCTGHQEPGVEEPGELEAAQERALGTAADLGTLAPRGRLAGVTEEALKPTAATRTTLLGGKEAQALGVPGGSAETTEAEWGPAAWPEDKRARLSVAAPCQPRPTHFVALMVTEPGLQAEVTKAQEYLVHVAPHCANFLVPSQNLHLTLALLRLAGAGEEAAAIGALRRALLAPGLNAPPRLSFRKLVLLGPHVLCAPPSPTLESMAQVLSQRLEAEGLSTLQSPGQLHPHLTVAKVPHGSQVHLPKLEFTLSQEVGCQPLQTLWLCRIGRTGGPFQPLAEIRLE
Sequence of UniProt Q9C0E8 (Q9C0E8 whole entry): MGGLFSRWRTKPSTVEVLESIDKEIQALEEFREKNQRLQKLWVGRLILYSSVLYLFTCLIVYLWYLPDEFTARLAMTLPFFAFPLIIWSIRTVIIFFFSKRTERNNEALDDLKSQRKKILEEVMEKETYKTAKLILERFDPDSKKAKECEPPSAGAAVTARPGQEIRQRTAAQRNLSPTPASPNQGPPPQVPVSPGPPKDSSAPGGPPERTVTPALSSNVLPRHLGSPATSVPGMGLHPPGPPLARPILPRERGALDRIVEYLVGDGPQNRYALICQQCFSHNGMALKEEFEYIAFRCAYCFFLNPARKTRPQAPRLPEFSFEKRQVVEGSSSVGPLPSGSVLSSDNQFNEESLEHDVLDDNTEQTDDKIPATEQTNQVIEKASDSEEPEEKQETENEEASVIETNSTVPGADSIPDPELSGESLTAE
Sequence of UniProt Q9BU23 (Q9BU23 whole entry): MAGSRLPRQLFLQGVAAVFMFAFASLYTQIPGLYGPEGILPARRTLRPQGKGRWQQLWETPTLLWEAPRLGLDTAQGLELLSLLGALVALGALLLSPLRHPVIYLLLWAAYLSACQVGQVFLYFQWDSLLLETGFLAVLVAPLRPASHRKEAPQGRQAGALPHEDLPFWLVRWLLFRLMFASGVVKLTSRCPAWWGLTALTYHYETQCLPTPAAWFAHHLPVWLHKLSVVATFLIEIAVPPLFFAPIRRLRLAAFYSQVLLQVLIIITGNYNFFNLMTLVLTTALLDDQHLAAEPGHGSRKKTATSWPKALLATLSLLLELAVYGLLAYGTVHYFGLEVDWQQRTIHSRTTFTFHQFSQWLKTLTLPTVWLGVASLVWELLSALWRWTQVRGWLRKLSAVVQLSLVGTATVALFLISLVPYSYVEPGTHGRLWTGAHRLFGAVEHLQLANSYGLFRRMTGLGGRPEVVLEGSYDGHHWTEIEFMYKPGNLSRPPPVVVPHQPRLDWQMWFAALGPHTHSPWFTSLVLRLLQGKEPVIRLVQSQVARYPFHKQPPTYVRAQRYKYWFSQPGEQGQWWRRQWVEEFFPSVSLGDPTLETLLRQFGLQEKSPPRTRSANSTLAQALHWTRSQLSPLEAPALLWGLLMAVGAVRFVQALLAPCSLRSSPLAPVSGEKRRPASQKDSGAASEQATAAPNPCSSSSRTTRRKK
Sequence of UniProt P38571 (P38571 whole entry): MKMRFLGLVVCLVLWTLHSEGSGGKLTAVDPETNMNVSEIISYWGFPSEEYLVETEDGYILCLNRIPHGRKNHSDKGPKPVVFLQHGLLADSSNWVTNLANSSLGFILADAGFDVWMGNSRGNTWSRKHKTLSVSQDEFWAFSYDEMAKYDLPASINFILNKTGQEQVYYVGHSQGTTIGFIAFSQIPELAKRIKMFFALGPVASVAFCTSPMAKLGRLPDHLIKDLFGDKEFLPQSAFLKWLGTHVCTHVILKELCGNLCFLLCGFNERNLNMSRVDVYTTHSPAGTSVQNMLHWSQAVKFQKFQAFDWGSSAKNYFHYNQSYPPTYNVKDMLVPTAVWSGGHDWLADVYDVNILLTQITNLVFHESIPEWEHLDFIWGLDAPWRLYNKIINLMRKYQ
Sequence of UniProt Q99538 (Q99538 whole entry): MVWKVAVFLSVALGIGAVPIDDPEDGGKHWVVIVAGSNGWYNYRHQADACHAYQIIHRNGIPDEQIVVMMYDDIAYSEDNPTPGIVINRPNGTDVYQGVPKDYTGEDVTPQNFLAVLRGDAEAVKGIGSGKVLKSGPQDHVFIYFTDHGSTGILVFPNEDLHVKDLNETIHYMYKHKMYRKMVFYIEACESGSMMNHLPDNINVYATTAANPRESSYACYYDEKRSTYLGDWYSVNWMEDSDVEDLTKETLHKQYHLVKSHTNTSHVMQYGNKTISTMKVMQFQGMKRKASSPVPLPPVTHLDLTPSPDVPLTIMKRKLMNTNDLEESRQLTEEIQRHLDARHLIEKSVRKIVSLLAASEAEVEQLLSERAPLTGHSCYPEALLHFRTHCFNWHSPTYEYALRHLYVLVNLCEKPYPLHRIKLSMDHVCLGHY
Sequence of UniProt Q9UHA4 (Q9UHA4 whole entry): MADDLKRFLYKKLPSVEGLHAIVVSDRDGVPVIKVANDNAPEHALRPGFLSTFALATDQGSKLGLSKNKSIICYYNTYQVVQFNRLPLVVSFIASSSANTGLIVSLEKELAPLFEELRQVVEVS
Sequence of UniProt Q9Y2Q5 (Q9Y2Q5 whole entry): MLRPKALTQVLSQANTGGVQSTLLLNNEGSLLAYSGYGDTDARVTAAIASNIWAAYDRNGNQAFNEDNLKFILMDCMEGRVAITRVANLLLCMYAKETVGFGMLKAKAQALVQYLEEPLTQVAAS

Target	thermal stability z-score (potassium arsenate)	thermal stability z-score (lipoamide; [1])	thermal stability z-score (lipoamide; arsenate co-treatment: none)
LAMP2 (UniProt P13473)	0.0434	-0.0628	-0.138
LAMTOR1 (UniProt Q6IAA8)	0.827	1.14	0.655
LAMTOR2 (UniProt Q9Y2Q5)	0.135	0.266	0.19
LAMTOR3 (UniProt Q9UHA4)	-0.713	1.21	0.41
LAMTOR5 (UniProt O43504)	0.0111	-0.306	-0.405
LANCL1 (UniProt O43813)	0.0783	0.232	0.164
LANCL2 (UniProt Q9NS86)	-0.393	-1.13	-0.454
LAP3 (UniProt P28838)	1.29	0.405	0.407
LARP1 (UniProt Q6PKG0)	1.03	0.375	0.88
LARP4 (UniProt Q71RC2)	-0.708	-0.463	-0.301
LARP4B (UniProt Q92615)	-0.111	0.048	0.174
LARP7 (UniProt Q4G0J3)	0.0679	0.34	0.152
LARS2 (UniProt Q15031)	-0.741	-0.0508	0.0433
LARS (UniProt Q9P2J5)	0.86	-0.63	0.0502
LAS1L (UniProt Q9Y4W2)	-0.116	-0.0675	-0.132
LASP1 (UniProt Q14847)	-0.178	0.387	0.383
LATS1 (UniProt O95835)	-0.0262	-0.183	-0.189
LBR (UniProt Q14739)	0.0853	-0.0763	-0.097
LCLAT1 (UniProt Q6UWP7)	-2.38	1.1	0.0592
LCMT1 (UniProt Q9UIC8)	-0.0988	0.437	0.614
LCMT2 (UniProt O60294)	-0.332	-0.107	-0.78
LDAH (UniProt Q9H6V9)	0.0377	-0.0856	-0.00844
LDB1 (UniProt Q86U70)	-0.783	0.244	1.15
LDHA (UniProt P00338)	-0.436	0.685	0.577

Target	thermal stability z-score (potassium arsenate)	thermal stability z-score (lipoamide; [1])	thermal stability z-score (lipoamide; arsenate co-treatment: none)
LDHB (UniProt P07195)	0.13	0.679	0.658
LDLR (UniProt P01130)	-0.0946	0.0821	-0.206
LEMD2 (UniProt Q8NC56)	-0.503	-1.14	-1.41
LEMD3 (UniProt Q9Y2U8)	-0.685	0.161	0.209
LENG1 (UniProt Q96BZ8)	0.544	0.493	0.509
LENG9 (UniProt Q96B70)	-0.307	-0.216	-0.193
LEO1 (UniProt Q8WVC0)	0.239	1.13	0.765
LETM1 (UniProt O95202)	0.0137	0.0577	0.374
LETMD1 (UniProt Q6P1Q0)	0.0642	0.197	-0.0626
LGALS1 (UniProt P09382)	-0.756	0.596	0.255
LGALS3 (UniProt P17931)	-0.377	0.762	0.918
LGALS3BP (UniProt Q08380)	0.946	-2.58	-2.13
LGALSL (UniProt Q3ZCW2)	0.19	0.209	0.257
LGMN (UniProt Q99538)	-0.193	-0.232	-0.461
LHPP (UniProt Q9H008)	0.146	1.03	0.991
LIAS (UniProt O43766)	-2.31	1.93	3.09
LIFR (UniProt P42702)	-0.287	-1.35	-0.675
LIG1 (UniProt P18858)	0.24	-0.166	0.00122
LIG3 (UniProt P49916)	-1.05	-0.0256	0.0387
LIG4 (UniProt P49917)	-0.107	-0.146	0.0757
LIMA1 (UniProt Q9UHB6)	-1	-0.552	-0.44
LIMCH1 (UniProt Q9UPQ0)	0.542	0.0623	0.151
LIMD1 (UniProt Q9UGP4)	-5.26	-1.08	-0.705
LIMS1 (UniProt P48059)	-2.08	-0.604	-0.589

Target	thermal stability z-score (potassium arsenate)	thermal stability z-score (lipoamide; [1])	thermal stability z-score (lipoamide; arsenate co-treatment: none)
LIN7C (UniProt Q9NUP9)	0.379	0.138	0.419
LIN9 (UniProt Q5TKA1)	-0.121	-0.0678	-0.263
LIN54 (UniProt Q6MZP7)	0.0147	0.0767	-0.0219
LIPA (UniProt P38571)	0.119	-0.674	-0.352
LIX1L (UniProt Q8IVB5)	-0.301	-0.241	-0.219
LLGL1 (UniProt Q15334)	-0.755	-0.455	-0.324
LLGL2 (UniProt Q6P1M3)	-0.318	-0.179	-0.122
LLPH (UniProt Q9BRT6)	-2.48	-1.21	-1.15
LMAN1 (UniProt P49257)	0.757	-3.38	-2.78
LMAN2 (UniProt Q12907)	0.284	-1.93	-1.77
LMAN2L (UniProt Q9H0V9)	0.373	-2.57	-1.5
LMBRD1 (UniProt Q9NUN5)	0.252	-0.626	-0.635
LMBRD2 (UniProt Q68DH5)	-0.111	-0.904	-0.0118
LMF2 (UniProt Q9BU23)	0.316	-0.972	-0.61
LMNA (UniProt P02545)	-0.488	0.567	0.493
LMNB1 (UniProt P20700)	0.742	2.11	-0.38
LMNB2 (UniProt Q03252)	0.839	0.686	0.0237
LMO4 (UniProt P61968)	0.164	0.548	0.0182
LMO7 (UniProt Q8WWI1)	-1.54	1.17	0.27
LMTK2 (UniProt Q8IWU2)	1.04	-0.465	-0.397
LNP (UniProt Q9C0E8)	-0.997	-1.09	-0.771
LNPEP (UniProt Q9UIQ6)	0.249	0.328	0.227
LOC102723897|WASH3P|WASH2P	0.051	0.179	-0.15
